Measurements: US10522239B2, “Small molecule binding pockets in nucleic acids” (Nymirum, Inc., priority 2012, dated 2019)

Molecular target: pre-miR-122 loop
Assay: NMR titration binding screen against pre-miR-122 loop
Design: species or system human
Details: NMR titration experiments
From the text: The apical loop sequence of human pre-miR 122 RNA sequence was investigated as an example. Two base pairs at the 5′- and 3′-ends of the sequence were modified from the native pre-miR 122 sequence in order to stabilize the 24-mer stem loop construct for NMR studies (5′-[…]-3′) (SEQ ID NO: 2).
Because pre-miR-122 is cleaved near the helix-apical loop interface, the apical loop was targeted to identify binding pockets. […] Given the size and plasticity of the loop, it was hypothesized that the loop could assume different conformations to bind small molecules. To identify small molecule binding pockets, each of the 60 small molecules in Nymirum's small molecule library was screened against the pre-miR-122 loop using NMR titration experiments. Two small molecules, NC1404 (9-aminoacridine) and NC1444 (L-arg-p-nitroanilide), were identified to bind with Kds of 71.7±9.0 μM and 17.6±3.25 μM respectively (FIGS. 12A and 12B). Using the same procedure detailed for A-site, bound-state chemical shifts for NC1404 and NC1444 were measured, used to solve a bound-state pre-miR-122 structure and a binding pocket for each compound was identified (FIGS. 12A and 12B). […]

| Structure (SMILES) | Kd [µM] |
| --- | --- |
| Nc1c2ccccc2nc2ccccc12 [NC1404, 9-aminoacridine] | 71.7 ± 9 |
| N=C(N)NCCC[C@H](N)C(=O)Nc1ccc([N+](=O)[O-])cc1 [NC1444, L-arg-p-nitroanilide] | 17.6 ± 3.25 |
